Measured values published in paper PMC9029893 (International Journal of Molecular Sciences, 2022).

Columns and labels:
Type in all cases: biochemical
factor X = target: T1, factor X (Homo sapiens, UniProt P00742); experiment: Factor X activity
T1 construct: 50 µL of four-fold diluted PPP, 50 μL of deficient plasma factor X, 10 μL of the examined compound; from tissue; host or cells: platelet-poor plasma (PPP), mixed with factor X-depleted plasma (Bio-Ksel)
Protocol: The activity of FX was measured optically using deficient plasma factor X [75]. The content of each sample was as follows: 50 µL of four-fold diluted PPP, 50 μL of deficient plasma factor X, 10 μL of the examined compound, and 100 µL PT reagent. The control samples contained 10 μL of distilled water and methanol (1:1). The measurement of PT time was recorded using a CoagChrom-3003 coagulometer (Bio-Ksel, Grudziadz, Poland). The activity of factor X was counted using a calibration curve (R^2 = 0.999) performed on a calibrator diluted in the range 1:5–1:80 [76]. The variation in plasma coagulation time is proportional to the concentration and activity of factor X in the patient plasma treated with the tested compounds. The coefficient of variability for the method was calculated as CV = 1.80%. The reference values for factor X activity ranged from 77–131%.

[1] = system: clot formation and fibrinolysis in human citrate plasma; experiment: Clot formation and fibrinolysis test (CL-test)
Protocol: The effects of the […] on overall hemostasis potential by means of clot formation and fibrinolysis test (CL-test) were further tested based on the continuous measurement of the changes in optical transmittance over time, as described by Kostka et al. and Sikora et al.. These experiments were conducted using 470 µL of three-fold diluted human citrate plasma, 10 µL of the tested compounds, and 10 µL t-PA (final concentration in a sample 220 ng/mL). The clot formation was triggered by thrombin (10 µL, final concentration 0.5 IU/mL). The clot formation and lysis curves were determined at a wavelength of 405 nm with a spectrophotometer (Cecil CE 2021; London, UK) with circulating thermostated water (37 °C) and a Model 300 Electronic Stirrer (Rank Brothers Ltd., Cambridge, UK). The experiments were conducted in multiplicate (n = 5–7), and the results are presented as mean ± SD.
The received graphs were analyzed using dedicated software to determine the kinetic parameters of clot formation, stabilization, and fibrinolysis. The following parameters of clot formation were determined: Tt—thrombin time (s), Fmax—maximum clotting (%T), Tf—plasma clotting time (s), Fvo—initial plasma clotting velocity (%T/min), Sr—area under the clot formation curve (%Txmin). The parameters of the clot stabilization phase comprised Tc—clot stabilization time (s), Sc—area under the curve of stable clot formation (%Txmin). The parameters of fibrinolysis comprised Lmax—maximum lysis (%T), Tl—fibrinolysis time (s), Lvo—initial clot fibrinolysis velocity (%T/min), Sf—area under the fibrinolysis curve (%Txmin). Additionally, the overall potential of clot formation and fibrinolysis (CLAUC, (%Txmin)) and total time of the process of clot formation and fibrinolysis (T, (s)) were also estimated.

[2] = system: human plasma (platelet poor plasma); experiment: Basic coagulation tests: PT, INR, APTT, TT; settings: for TT: thrombin 3.0 UNIH/mL
Protocol: The blood was collected into vacuum tubes stuffed with 3.2% buffered sodium citrate. Platelet poor plasma (PPP) was obtained by centrifugation at 3000× g for 10 min at room temperature using a Micro 22R centrifuge (Hettich Zentrifugen, Tuttlingen, Germany). The obtained PPP was stored in small aliquots for up to one month at –30° C. Before each experiment, PPP was restored at 37 °C for 15 min. Once thawed, the PPP was not frozen again nor used for retesting.
The effects of biguanidines (1–5) on the basic coagulation parameters (PT, INR, APTT, and TT) were carried out using a CoagChrom-3003 coagulometer (Bio-Ksel, Grudziądz, Poland), according to the routine laboratory diagnostic procedure. The studies were performed in multiplicate (n = 4–7). The control samples containing distilled water and methanol (1:1) were also included.
The results are presented as mean ± standard deviation (SD). The methods were validated, and coefficients of variability for all experiments were calculated (PT: CV = 10.25%, APTT: CV = 8.55%, TT: CV = 4.87%). The reference values for each test are as follows: PT: 9.7–14.6 s; APTT: 26.7–40.0 s; TT: 14.0–18.0 s for 3.0 UNIH/mL of thrombin.

T1 sequence (P00742 41-488): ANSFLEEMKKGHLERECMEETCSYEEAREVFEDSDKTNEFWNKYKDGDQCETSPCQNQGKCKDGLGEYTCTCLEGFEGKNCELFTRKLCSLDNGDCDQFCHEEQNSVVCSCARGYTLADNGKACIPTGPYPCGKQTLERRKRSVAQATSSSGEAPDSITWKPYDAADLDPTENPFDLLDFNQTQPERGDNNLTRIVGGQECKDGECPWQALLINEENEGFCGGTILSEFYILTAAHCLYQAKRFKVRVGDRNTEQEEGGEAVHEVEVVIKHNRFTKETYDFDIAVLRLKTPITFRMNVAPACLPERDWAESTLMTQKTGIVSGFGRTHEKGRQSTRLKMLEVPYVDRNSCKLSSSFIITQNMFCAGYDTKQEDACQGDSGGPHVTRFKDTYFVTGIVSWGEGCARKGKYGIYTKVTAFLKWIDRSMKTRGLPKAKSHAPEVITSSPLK

CCCCCCCCS(=O)(=O)NC(N)=NC(=N)N(C)C [Compound 2]
Factor X activity (factor X; 0.3 mM): 107.40 ± 6.19% | Factor X activity (factor X; 0.6 mM): 104.00 ± 5.34% | Factor X activity (factor X; 1.5 mM): 107.00 ± 4.00% | Fmax—maximum clotting ([1]; 0.06 mM): 66.77 ± 5.68 %T | Fvo—initial plasma clotting velocity ([1]; 0.06 mM): 203.43 ± 22.00 %T/min | Lmax—maximum lysis ([1]; 0.06 mM): 67.40 ± 5.38 %T | Lvo—initial clot fibrinolysis velocity ([1]; 0.06 mM): 22.29 ± 4.30 %T/min | Sc—area under the curve of a stable clot formation ([1]; 0.06 mM): 323.20 ± 94.05 %T x min | Sf—area under the clot formation curve ([1]; 0.06 mM): 44.40 ± 9.07 %T x min | Sl (area under the fibrinolysis curve) ([1]; 0.06 mM): 148.45 ± 47.41 %T x min | S—overall potential of clot formation and fibrinolysis (CLAUC) ([1]; 0.06 mM): 516.05 ± 146.55 %T x min | Tc—clot stabilization time ([1]; 0.06 mM): 296.57 ± 72.31 s | Tf—plasma clotting time ([1]; 0.06 mM): 56.56 ± 8.57 s | Tl—fibrinolysis time ([1]; 0.06 mM): 240.14 ± 65.11 s | Tt—thrombin time ([1]; 0.06 mM): 16.86 ± 4.24 s | T—total time of the process of clot formation and fibrinolysis ([1]; 0.06 mM): 610.13 ± 145.50 s | Fmax—maximum clotting ([1]; 0.3 mM): 68.99 ± 5.55 %T | Fvo—initial plasma clotting velocity ([1]; 0.3 mM): 194.00 ± 48.64 %T/min | Lmax—maximum lysis ([1]; 0.3 mM): 69.49 ± 5.34 %T | Lvo—initial clot fibrinolysis velocity ([1]; 0.3 mM): 19.83 ± 6.57 %T/min | Sc—area under the curve of a stable clot formation ([1]; 0.3 mM): 344.01 ± 74.34 %T x min | Sf—area under the clot formation curve ([1]; 0.3 mM): 46.00 ± 9.83 %T x min | Sl (area under the fibrinolysis curve) ([1]; 0.3 mM): 153.63 ± 43.80 %T x min | S—overall potential of clot formation and fibrinolysis (CLAUC) ([1]; 0.3 mM): 543.64 ± 122.37 %T x min | Tc—clot stabilization time ([1]; 0.3 mM): 309.14 ± 68.74 s | Tf—plasma clotting time ([1]; 0.3 mM): 59.24 ± 16.26 s | Tl—fibrinolysis time ([1]; 0.3 mM): 252.00 ± 73.00 s | Tt—thrombin time ([1]; 0.3 mM): 17.54 ± 5.79 s | T—total time of the process of clot formation and fibrinolysis ([1]; 0.3 mM): 637.93 ± 155.22 s | Fmax—maximum clotting ([1]; 0.6 mM): 67.40 ± 9.57 %T | Fvo—initial plasma clotting velocity ([1]; 0.6 mM): 214.14 ± 50.85 %T/min | Lmax—maximum lysis ([1]; 0.6 mM): 68.19 ± 9.82 %T | Lvo—initial clot fibrinolysis velocity ([1]; 0.6 mM): 20.37 ± 7.03 %T/min | Sc—area under the curve of a stable clot formation ([1]; 0.6 mM): 344.82 ± 65.62 %T x min | Sf—area under the clot formation curve ([1]; 0.6 mM): 44.34 ± 10.50 %T x min | Sl (area under the fibrinolysis curve) ([1]; 0.6 mM): 143.77 ± 40.07 %T x min | S—overall potential of clot formation and fibrinolysis (CLAUC) ([1]; 0.6 mM): 532.93 ± 111.10 %T x min | Tc—clot stabilization time ([1]; 0.6 mM): 319.00 ± 63.63 s | Tf—plasma clotting time ([1]; 0.6 mM): 55.80 ± 11.60 s | Tl—fibrinolysis time ([1]; 0.6 mM): 247.43 ± 74.21 s | Tt—thrombin time ([1]; 0.6 mM): 17.57 ± 3.74 s | T—total time of the process of clot formation and fibrinolysis ([1]; 0.6 mM): 639.80 ± 148.09 s | Fmax—maximum clotting ([1]; 1.5 mM): 61.57 ± 7.24 %T | Fvo—initial plasma clotting velocity ([1]; 1.5 mM): 177.43 ± 34.91 %T/min | Lmax—maximum lysis ([1]; 1.5 mM): 62.14 ± 6.63 %T | Lvo—initial clot fibrinolysis velocity ([1]; 1.5 mM): 20.07 ± 6.59 %T/min | Sc—area under the curve of a stable clot formation ([1]; 1.5 mM): 346.35 ± 92.32 %T x min | Sf—area under the clot formation curve ([1]; 1.5 mM): 44.31 ± 12.08 %T x min | Sl (area under the fibrinolysis curve) ([1]; 1.5 mM): 133.78 ± 47.19 %T x min | S—overall potential of clot formation and fibrinolysis (CLAUC) ([1]; 1.5 mM): 524.43 ± 146.77 %T x min | Tc—clot stabilization time ([1]; 1.5 mM): 351.43 ± 96.53 s | Tf—plasma clotting time ([1]; 1.5 mM): 61.21 ± 14.65 s | Tl—fibrinolysis time ([1]; 1.5 mM): 249.14 ± 80.94 s | Tt—thrombin time ([1]; 1.5 mM): 24.37 ± 7.41 s | T—total time of the process of clot formation and fibrinolysis ([1]; 1.5 mM): 686.16 ± 190.86 s | APTT ([2]; 0.006 mM): 30.79 ± 5.87 s | INR ([2]; 0.006 mM): 1.07 ± 0.15 | PT ([2]; 0.006 mM): 13.30 ± 1.81 s | TT ([2]; 0.006 mM): 14.14 ± 0.59 s | APTT ([2]; 0.06 mM): 31.33 ± 5.53 s | INR ([2]; 0.06 mM): 1.03 ± 0.10 | PT ([2]; 0.06 mM): 12.82 ± 1.33 s | TT ([2]; 0.06 mM): 13.86 ± 0.80 s | APTT ([2]; 0.3 mM): 33.49 ± 4.85 s | INR ([2]; 0.3 mM): 1.05 ± 0.11 | PT ([2]; 0.3 mM): 13.10 ± 1.37 s | TT ([2]; 0.3 mM): 13.48 ± 2.10 s | APTT ([2]; 0.6 mM): 33.46 ± 5.59 s | INR ([2]; 0.6 mM): 1.04 ± 0.11 | PT ([2]; 0.6 mM): 12.96 ± 1.42 s | TT ([2]; 0.6 mM): 14.40 ± 2.35 s | APTT ([2]; 1.5 mM): 34.83 ± 6.22 s | INR ([2]; 1.5 mM): 1.06 ± 0.10 | PT ([2]; 1.5 mM): 13.20 ± 1.23 s | TT ([2]; 1.5 mM): 16.32 ± 2.21 s
